# Measured values taken from patent US11208386B2, “Inhibitors of protein arginine deiminases (PADs) and methods of preparation and use thereof” (University of Massachusetts, priority 2016, dated 2021).
# Legend:
# Assay type in all cases: biochemical
# PAD1 = biological target: T1, PAD1 (Homo sapiens, UniProt Q9ULC6); experiment: Inactivation kinetics, PAD1; settings: for kinact/KI: a: single kobs determined, b: from a linear fit; for Fold PAD1 Selectivity: kinact/KI relative to least inhibited isozyme (1.0)
# T1 construct: made in house
# T1 sequence (Q9ULC6 1-663): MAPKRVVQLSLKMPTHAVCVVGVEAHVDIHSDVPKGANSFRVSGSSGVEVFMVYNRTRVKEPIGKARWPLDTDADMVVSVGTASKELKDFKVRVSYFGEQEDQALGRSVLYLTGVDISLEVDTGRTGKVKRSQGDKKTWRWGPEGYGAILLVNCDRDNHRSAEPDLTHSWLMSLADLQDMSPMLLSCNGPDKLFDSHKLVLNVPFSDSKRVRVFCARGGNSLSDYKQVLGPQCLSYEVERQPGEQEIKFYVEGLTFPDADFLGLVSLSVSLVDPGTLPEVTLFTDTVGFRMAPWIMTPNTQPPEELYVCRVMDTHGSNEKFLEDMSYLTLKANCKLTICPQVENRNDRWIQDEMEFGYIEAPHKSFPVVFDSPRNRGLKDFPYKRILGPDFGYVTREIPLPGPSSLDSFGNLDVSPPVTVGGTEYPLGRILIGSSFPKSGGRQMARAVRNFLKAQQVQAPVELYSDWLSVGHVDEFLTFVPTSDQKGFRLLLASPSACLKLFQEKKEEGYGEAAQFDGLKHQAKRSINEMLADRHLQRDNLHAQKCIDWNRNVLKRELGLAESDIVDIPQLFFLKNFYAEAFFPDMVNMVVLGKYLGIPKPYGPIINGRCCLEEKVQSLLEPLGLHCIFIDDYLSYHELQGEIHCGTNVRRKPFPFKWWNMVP
# Procedure, shortened: (§1)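 PAD1, 2 or 4 (2.0 μM) or PAD3 (5.0 μM) preincubated at 37 °C with varying inhibitor in 50 mM HEPES, 10 mM CaCl2, 2 mM DTT, pH 7.6. Timed aliquots assayed 15 min with 10 mM BAEE (BAA for PAD3); citrulline quantified by COLDER.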
# PAD3 = biological target: T2, PAD3 (Homo sapiens, UniProt Q9ULW8); experiment: Inactivation kinetics, PAD3; settings: for kinact/KI: a: single kobs determined; for Fold PAD3 Selectivity: kinact/KI relative to least inhibited isozyme (1.0)
# T2 construct: made in house
# T2 sequence (Q9ULW8 1-664): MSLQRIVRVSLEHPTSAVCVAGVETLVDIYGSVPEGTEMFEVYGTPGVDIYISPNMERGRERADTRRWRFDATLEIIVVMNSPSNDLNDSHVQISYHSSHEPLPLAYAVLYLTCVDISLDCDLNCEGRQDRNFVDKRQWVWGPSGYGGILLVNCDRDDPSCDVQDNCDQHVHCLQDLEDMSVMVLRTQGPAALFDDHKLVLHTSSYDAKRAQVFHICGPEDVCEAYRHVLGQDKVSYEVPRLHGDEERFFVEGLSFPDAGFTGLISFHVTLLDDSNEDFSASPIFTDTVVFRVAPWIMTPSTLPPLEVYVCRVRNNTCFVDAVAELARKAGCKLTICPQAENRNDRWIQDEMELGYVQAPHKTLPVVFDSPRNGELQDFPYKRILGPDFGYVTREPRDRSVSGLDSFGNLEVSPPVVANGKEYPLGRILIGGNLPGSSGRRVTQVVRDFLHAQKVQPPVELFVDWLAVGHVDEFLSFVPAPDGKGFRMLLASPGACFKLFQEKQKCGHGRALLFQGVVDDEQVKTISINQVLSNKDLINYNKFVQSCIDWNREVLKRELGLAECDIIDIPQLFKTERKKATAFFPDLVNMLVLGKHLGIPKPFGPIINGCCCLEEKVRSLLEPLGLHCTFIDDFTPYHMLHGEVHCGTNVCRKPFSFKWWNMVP
# Procedure, shortened: as §1
# PAD4 = biological target: T3, PAD4 (Homo sapiens, UniProt Q9UM07); experiment: Inactivation kinetics, PAD4; settings: for kinact/KI: a: single kobs determined, b: from a linear fit; for Fold PAD4 Selectivity: kinact/KI relative to least inhibited isozyme (1.0)
# T3 construct: made in house
# T3 sequence (Q9UM07 whole entry): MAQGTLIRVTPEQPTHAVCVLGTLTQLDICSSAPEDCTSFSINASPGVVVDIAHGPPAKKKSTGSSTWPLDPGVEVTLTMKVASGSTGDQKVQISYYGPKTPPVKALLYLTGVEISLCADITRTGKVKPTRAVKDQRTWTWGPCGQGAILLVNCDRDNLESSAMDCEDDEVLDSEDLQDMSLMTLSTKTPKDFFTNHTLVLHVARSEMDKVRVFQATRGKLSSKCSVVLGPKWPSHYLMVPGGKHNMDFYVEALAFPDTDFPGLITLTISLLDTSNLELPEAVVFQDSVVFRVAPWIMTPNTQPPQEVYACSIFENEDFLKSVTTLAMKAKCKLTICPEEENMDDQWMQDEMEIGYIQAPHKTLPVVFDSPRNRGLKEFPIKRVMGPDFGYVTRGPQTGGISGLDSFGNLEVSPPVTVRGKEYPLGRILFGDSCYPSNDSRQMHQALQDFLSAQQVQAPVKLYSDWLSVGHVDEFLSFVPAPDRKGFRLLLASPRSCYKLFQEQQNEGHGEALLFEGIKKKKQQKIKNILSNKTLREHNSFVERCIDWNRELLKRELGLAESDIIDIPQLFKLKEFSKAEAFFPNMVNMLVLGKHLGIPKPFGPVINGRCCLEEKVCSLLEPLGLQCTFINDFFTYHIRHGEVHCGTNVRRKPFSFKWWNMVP
# Procedure, shortened: as §1
# PAD2 = biological target: T4, PAD2 (Homo sapiens, UniProt Q9Y2J8); experiment: Inactivation kinetics, PAD2; settings: for kinact/KI: a: single kobs determined, b: from a linear fit, other footnotes: from kinact and KI; for Fold PAD2 Selectivity: kinact/KI relative to least inhibited isozyme (1.0); for Ki / kinact: PAD2, table footnote
# T4 construct: made in house
# T4 sequence (Q9Y2J8 whole entry): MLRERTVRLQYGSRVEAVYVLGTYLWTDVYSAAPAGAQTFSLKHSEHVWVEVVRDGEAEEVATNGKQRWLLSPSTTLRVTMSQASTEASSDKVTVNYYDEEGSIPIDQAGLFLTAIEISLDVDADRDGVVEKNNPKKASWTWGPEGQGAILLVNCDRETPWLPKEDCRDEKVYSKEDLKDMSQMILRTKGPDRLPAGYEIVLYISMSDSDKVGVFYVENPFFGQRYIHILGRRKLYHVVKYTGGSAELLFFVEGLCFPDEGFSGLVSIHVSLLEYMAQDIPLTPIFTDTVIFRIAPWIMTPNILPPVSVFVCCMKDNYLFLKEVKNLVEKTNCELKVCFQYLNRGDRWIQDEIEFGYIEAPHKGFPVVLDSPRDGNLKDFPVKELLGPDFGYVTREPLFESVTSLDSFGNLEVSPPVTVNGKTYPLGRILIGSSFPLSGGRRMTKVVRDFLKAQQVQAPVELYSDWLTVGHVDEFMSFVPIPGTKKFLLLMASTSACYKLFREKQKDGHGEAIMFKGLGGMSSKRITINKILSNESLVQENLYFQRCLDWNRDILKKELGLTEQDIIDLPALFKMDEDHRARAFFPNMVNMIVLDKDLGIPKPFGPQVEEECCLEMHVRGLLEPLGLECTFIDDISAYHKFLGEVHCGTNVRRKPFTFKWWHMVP
# Procedure, shortened: as §1
Structure (SMILES),kinact/KI (PAD1) [M⁻¹ s⁻¹],Fold PAD1 Selectivity (PAD1) [fold],kinact/KI (PAD3) [M⁻¹ s⁻¹],Fold PAD3 Selectivity (PAD3) [fold],kinact/KI (PAD4) [M⁻¹ s⁻¹],Fold PAD4 Selectivity (PAD4) [fold],kinact/KI (PAD2) [M⁻¹ s⁻¹],Fold PAD2 Selectivity (PAD2) [fold],Ki (PAD2) [µM],kinact (PAD2) [s⁻¹]
"COc1ccc2c(c1)nc([C@H](CCCNC(=N)CCl)NC(=O)c1cccc3c1C(=O)NC3)n2C [Compound 7p, N1-(3-oxoisoindoline)benzoyl-N5-(2-chloro-1-iminoethyl)-1-(5-methoxy-1-methyl-benzo[d]imidazol-2-yl)-L-ornithine]",2210,25,218,2.4,90.2,1.0,908,10,–,–
"CCN1Cc2cccc(C(=O)N[C@@H](CCCNC(=N)CF)c3nc4ccccc4[nH]3)c2C1=O [Compound 8a, N1-(2-ethyl-3-oxoisoindoline)benzol-N5-(2-fluoro-1-iminoethyl)-1-(1H-benzo[d]imidazol-2-yl)-L-ornithine]",807,3.4,248,1.0,248,1.0,240,1.0,–,–
"N=C(CF)NCCC[C@H](NC(=O)c1ccc(-c2ccccc2)cc1)c1nc2cc(F)c(F)cc2[nH]1 [Compound 5q, N1-[1,1′-Phenyl]benzoyl-N5-(2-fluoro-1-iminoethyl)-1-(5,6-difluoro-1H-benzo[d]imidazol-2-yl)-L-ornithine]",31,1.2,25.5,1.0,60,2.4,26.2,1.0,–,–
"CCN1Cc2cccc(C(=O)N[C@@H](CCCNC(=N)CF)c3nc4cc(OC)ccc4n3C)c2C1=O [Compound 8o, N1-(2-ethyl-3-oxoisoindoline)benzoyl-N5-(2-fluoro-1-iminoethyl)-1-(5-methoxy-1-methyl-benzo[d]imidazol-2-yl)-L-ornithine]",842,47,17.8,1.0,68.3,3.8,2230,125,18.7,0.0417
"Cn1c([C@H](CCCNC(=N)CF)NC(=O)c2ccccc2C(=O)OC(C)(C)C)nc2ccccc21 [Compound 9a, N1-(2-tert-butylcarboxy)benzoyl-N5-(2-fluoro-1-iminoethyl)-1-(1-methyl-benzo[d]imidazol-2-yl)-L-ornithine]",41.2,2.1,20,1.0,40.5,2.0,40,2.0,–,–
"N=C(CCl)NCCC[C@H](NC(=O)c1ccc(-c2ccc(F)cc2)cc1)c1nc2cc(F)c(F)cc2[nH]1 [Compound 5t, N1-4′-F-[1,1′-Phenyl]benzoyl-N5-(2-chloro-1-iminoethyl)-1-(5,6-difluoro-1H-benzo[d]imidazol-2-yl)-L-omithine]",508,5.3,120,1.3,354,3.7,95.5,1.0,–,–
CCOc1cccc2c1nc([C@H](CCCNC(=N)CCl)NC(=O)c1cccc3c1C(=O)NC3)n2C [Compound 7n],982,24,108,2.7,40.2,1.0,1200,30,–,–
"Cn1c([C@H](CCCNC(=N)CF)NC(=O)c2ccc(-c3ccccc3)cc2)nc2ccccc21 [Compound 5g, N1-[1,4′-Phenyl]benzoyl-N5-(2-fluoro-1-iminoethyl)-1-(1-methyl-benzo[d]imidazol-2-yl)-L-ornithine]",21.3,2.8,26.7,3.6,7.5,1.0,13.7,1.8,–,–
"CCN1Cc2cccc(C(=O)N[C@@H](CCCNC(=N)CCl)c3nc4c(OC)cccc4n3CC)c2C1=O [Compound 8v, N1-(2-ethyl-3-oxoisoindoline)benzoyl-N5-(2-chloro-1-iminoethyl)-1-(4-methoxy-1-ethyl-benzo[d]imidazol-2-yl)-L-ornithine]",907,31,99.5,3.4,29.2,1.0,776,27,–,–
N=C(CF)NCCC[C@H](NC(=O)c1ccc(-c2ccc(F)cc2)cc1)c1nc2ccccc2[nH]1 [Compound 5o],23.3,1.0,27,1.2,53.3,2.3,28.3,1.2,–,–
"COc1ccc2[nH]c([C@H](CCCNC(=N)CF)NC(=O)c3cccc4c3C(=O)NC4)nc2c1 [Compound 7s, N1-(3-oxoisoindoline)benzoyl-N5-(2-fluoro-1-iminoethyl)-1-(5-methoxy-1H-benzo[d]imidazol-2-yl)-L-ornithine]",974,13,76.2,1.0,264,3.5,415,5.4,–,–
"COc1ccc2c(c1)nc([C@H](CCCNC(=N)CF)NC(=O)c1cccc3c1C(=O)NC3)n2C [Compound 7o, N1-(3-oxoisoindoline)benzoyl-N5-(2-fluoro-1-iminoethyl)-1-(5-methoxy-1-methyl-benzo[d]imidazol-2-yl)-L-ornithine]",2080,121,17.2,1.0,20.5,1.2,1960,114,20.7,0.0403
"CCn1c([C@H](CCCNC(=N)CCl)NC(=O)c2cccc3c2C(=O)NC3)nc2ccccc21 [Compound 7f, N1-(3-oxoisoindoline)benzol-N5-(2-chloro-1-iminoethyl)-1-(1-ethyl-benzo[d]imidazol-2-yl)-L-ornithine]",2200,10,377,1.8,210,1.0,1010,4.8,–,–
"N=C(CF)NCCC[C@H](NC(=O)c1ccccc1C(=O)O)c1nc2ccccc2[nH]1 [Compound 6a, N1-(2-Carboxyl)benzol-N5-(2-fluoro-1-iminoethyl)-1-(1H-benzo[d]imidazol-2-yl)-L-ornithine]",275,11,108,4.3,405,16,25,1.0,–,–
